| melting point [°C] | SMILES |
| --- | --- |
| 159 to 162 | COc1ccc(C(CC(=O)O)N2C(=O)c3ccccc3C2=O)cc1OC1CCCC1 (centres unmarked) [Example 2, 3-Phthalimido-3-(3-cyclopentyloxy-4-methoxyphenyl)propionic Acid] |
| 76 to 78 | COC(=O)CC(c1ccc(OC)c(OC2CCCC2)c1)N1C(=O)c2ccccc2C1=O (centres unmarked) [Example 5, Methyl 3-phthalimido-3-(3-cyclopentyloxy-4-methoxyphenyl)propionate] |
